Measured values: patent US11951178B2, “Methods for treating subjects suffering from acute myeloid leukemia with FLT3 ligand-targeted miR-150 nanoparticles” (University of Cincinnati, priority 2016, dated 2024)

How the values were obtained:
[1] = system: primary MLL-AF9 AML cells; assay: MLL-AF9 AML secondary BMT recipient mouse model; type: in vivo; details: MLL-AF9 AML mice; nanoparticles 0.5 mg/kg i.v., JQ1 50 mg/kg i.p., every other day; PBS control 54 days
Procedure: The same MLL-AF9 AML mouse model was employed. […] All the P values were detected by log-rank test.
After the onset of secondary AML, the recipient mice were treated with PBS control, 0.5 mg/kg G7-NH2-miR-150, or G7-Flt3L-miR-150, i.v., every other day, until the PBS-treated control group all died of leukemia.
For the JQ1 and nanoparticle combination treatment experiment, after the onset of AML, the recipient mice were treated with PBS control, or 50 mg/kg JQ1, i.p., alone, or together with 0.5 mg/kg G7-NH2-miR-150, or G7-Flt3L-miR-150, i.v., every other day, until the PBS-treated control group all died of leukemia.
The in vivo therapeutic effects of the miR-150 nanoparticles were also investigated in a MLL-rearranged leukemic mouse model.

[2] = Blood cell counts of normal mice after nanoparticle/drug administration (effects on normal hematopoiesis)
Procedure: FIG. 12 provides an analysis of the potential influence of the nanoparticles on hematopoietic system in normal mice, C57BL/6 wild type mice were treated with 0.5 mg/kg PBS (Control/Ctrl), G7-NH2, G7-Flt3L, G7-NH2-miR-150 or G7-Flt3L-miR-150, i.v., every other day, for ten times. Mice were sacrificed 12 weeks after the last administration, subsequent Wright-Giemsa stained PB and BM, and H&E stained spleen and liver of the animals are shown.

[3] = normal C57BL/6 mice, 50 mg/kg JQ1 and/or 0.5 mg/kg nanoparticles, i.v., every day for 15 days, 4 weeks after the last administration

Question: Which results are given for `Cc1sc2c(c1C)C(c1ccc(Cl)cc1)=N[C@@H](CC(=O)OC(C)(C)C)c1nnc(C)n1-2` [JQ1]?
Answer: median survival [1]: 69.5 days; BA [2, 3]: 0.01 ± 0.0 K/μl; EO [2, 3]: 0.04 ± 0.04 K/μl; LY [2, 3]: 5.57 ± 0.83 K/μl; MO [2, 3]: 0.36 ± 0.32 K/μl; NE [2, 3]: 1.2 ± 0.62 K/μl; PLT [2, 3]: 688 ± 110.3 K/μl; RBC [2, 3]: 8.12 ± 1.13 M/μl; WBC [2, 3]: 7.18 ± 0.76 K/μl; noticeable (side) effects on normal hematopoiesis ([2]; normal mice in vivo): did not cause any noticeable side effects
